Experimental data as given in PubChem BioAssay (NCI).
Where “and” joins values, the source holds several entries; their conditions need not be identical. Identical values can stand only once.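 A five-concentration, 48-hour dose response in 96-well plates underlies each endpoint, interpolated linearly between surrounding concentrations. GI50 is the concentration that inhibits growth by half. Definition used: TGI = concentration required for complete inhibition of growth.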

Experiments:
Assay in all cases: NCI anticancer screen, dose series, 48 h
[1] = tested on: BT-549 breast
[2] = tested on: OVCAR-3 ovarian
[3] = tested on: HOP-92 NSCLC
[4] = tested on: SN12C renal
[5] = tested on: A498 renal
[6] = tested on: EKVX NSCLC
[7] = tested on: SK-MEL-5 melanoma
[8] = tested on: PC-3 prostate
[9] = tested on: SK-MEL-28 melanoma
[10] = tested on: SK-OV-3 ovarian

Structure (SMILES)	GI50 [1]	TGI [1]	GI50 [2]	TGI [2]	GI50 [3]	TGI [3]	GI50 [4]	TGI [4]	GI50 [5]	TGI [5]	GI50 [6]	TGI [6]	GI50 [7]	TGI [7]	GI50 [8]	TGI [8]	GI50 [9]	TGI [9]	GI50 [10]	TGI [10]
COc1cccc(N=N/C(=N\NC(=O)c2cc(Br)ccc2O)c2ccc(N(CCC#N)CCC#N)cc2OC)c1	74.1 µg/mL	> 150 µg/mL	59 µg/mL	> 150 µg/mL	116 µg/mL	> 150 µg/mL	99.4 µg/mL	> 150 µg/mL	150 µg/mL	> 150 µg/mL	99.9 µg/mL	> 150 µg/mL	35.1 µg/mL	97.1 µg/mL	49.5 µg/mL	> 150 µg/mL	62.7 µg/mL	> 150 µg/mL	72.6 µg/mL	> 150 µg/mL
C[C@@H](COCCC(=O)N1CCN(c2ncc(C(F)(F)F)cn2)CC1)Nc1cn[nH]c(=O)c1C(F)(F)F	78 nM	> 100 µM	97500 nM	> 100 µM	323 nM	> 65.7 µM	31100 nM	> 100 µM	21.9 nM	–	> 94 µM	> 100 µM	42.3 µM	> 100 µM	45400 nM	> 100 µM	> 100000 nM	> 100 µM	53 µM	> 100 µM
CC(C)C[C@H](NC(=O)[C@H](Cc1cccc2ccccc12)NS(=O)(=O)c1cccc2cccnc12)B(O)O	0.863 nM	0.0395 µM	0.595 nM	0.0149 µM and 0.0309 µM	29.9 nM	0.0547 µM and 0.0938 µM	7.1 nM	0.23 µM and 0.109 µM	3.42 nM	0.222 µM and 0.126 µM	0.109 µM	> 100 µM	0.00539 µM	0.0714 µM and 0.0206 µM	53.4 nM	0.817 µM and 0.418 µM	0.701 nM	0.0116 µM	–	> 33.8 µM
C=C1C(OC/C=C/COC2O[C@@H]3O[C@@]4(C)CC[C@H]5[C@H](C)CC[C@@H](C2=C)[C@@]35OO4)O[C@@H]2O[C@@]3(C)CC[C@H]4[C@H](C)CC[C@@H]1[C@@]24OO3 (stereo partly drawn)	3070 nM	41.1 µM	–	11.4 µM	1140 nM	36.3 µM	1330 nM	46.5 µM	26000 nM	> 100 µM	11.5 µM	31.9 µM	3.58 µM	27.3 µM	< 14.1 nM	32.5 µM	12300 nM	52.2 µM	51.3 µM	> 100 µM
Nc1cc(S(N)(=O)=O)ccc1SSc1ccc(S(N)(=O)=O)cc1N	–	> 100 µM	–	> 100 µM	–	> 100 µM	–	> 100 µM	–	> 100 µM	–	> 100 µM	–	> 100 µM	–	> 100 µM	–	> 100 µM	–	> 100 µM
COc1ccc(Cn2cc3c(c2-c2cc(OC)c(OC)c(OC)c2)CCc2cnoc2-3)cc1N	173 nM	> 100 µM	26 nM	0.0631 µM	4580 nM	> 100 µM	79.5 nM	> 100 µM	23.9 nM	0.524 µM	0.235 µM	> 100 µM	0.0325 µM	1.24 µM	75.1 nM	> 100 µM	79.7 nM	> 100 µM	0.0447 µM	> 100 µM
NS(=O)(=O)c1ccc(-n2ncc3c(Nc4ccccc4)ncnc32)cc1	30300 nM	92.8 µM	38200 nM	> 100 µM	23600 nM	> 100 µM	> 100000 nM	> 100 µM	24300 nM	92.7 µM	41.4 µM	> 100 µM	24.4 µM	> 100 µM	35100 nM	> 100 µM	31600 nM	> 100 µM	99.8 µM	> 100 µM
CSc1ccc(SC2c3ccc(C)cc3Oc3nc(N)c(C#N)c(N)c32)cc1 (stereo not drawn)	1530 nM	2.87 µM	1740 nM	3.13 µM	1900 nM	3.76 µM	1590 nM	2.94 µM	2050 nM	3.95 µM	1.6 µM	2.99 µM	1.76 µM	3.15 µM	1640 nM	3.22 µM	1830 nM	3.29 µM	1.83 µM	3.29 µM
CCNNC(=O)[C@@H]1[C@H](c2cc(OC)c(OC)c(OC)c2)c2cc3c(cc2[C@H](O)[C@H]1CO)OCO3	413 nM	–	275 nM	0.804 µM	433 nM	> 100 µM	449 nM	> 100 µM	211 nM	0.703 µM	0.519 µM	> 100 µM	0.236 µM	0.635 µM	391 nM	> 100 µM	599 nM	> 100 µM	0.29 µM	1.08 µM
CN(CC(=O)O)Cc1oc(CO)cc(=O)c1O	–	> 100 µM	–	> 100 µM	–	> 100 µM	–	> 100 µM	–	> 100 µM	–	> 100 µM	–	> 100 µM	–	> 100 µM	–	> 100 µM	–	> 100 µM
Cc1nc2c(N3CCCC3)nc(N3CCNCC3)nc2nc1NCc1ccccc1	5050 nM	10.7 µM and 14.8 µM	3280 nM	9.27 µM and 10.7 µM	–	7.83 µM and 13.7 µM	6390 nM	13 µM and 19.9 µM	14200 nM	9.77 µM and 27.2 µM	5.46 µM	10.6 µM and 20.8 µM	4.94 µM	9.98 µM and 3.06 µM	–	11 µM and 17 µM	–	3.75 µM	6.15 µM	11.7 µM and 20.5 µM
Cc1cnccc1N=Nc1ccc(N(C)C)cc1	–	49.3 µM	–	72.1 µM	–	36.1 µM	–	72.6 µM	–	94.1 µM	–	32.9 µM	–	29.5 µM	–	97.3 µM	–	52.7 µM	–	48.2 µM
Cc1cc(C)c(S(=O)(=O)N(CCc2cccc(Br)c2)Cc2ccc(-c3cccc(S(C)(=O)=O)c3)cc2)c(C)c1	> 100000 nM	> 100 µM	> 100000 nM	> 100 µM	> 100000 nM	> 100 µM	> 100000 nM	> 100 µM	> 100000 nM	> 100 µM	> 100 µM	> 100 µM	> 100 µM	> 100 µM	> 100000 nM	> 100 µM	> 100000 nM	> 100 µM	> 100 µM	> 100 µM
